Source: patent US20100299778A1, “NUCLEOTIDE SEQUENCE ENCODING ARTEMISINIC ALDEHYDE DOUBLE BOND REDUCTASE, ARTEMISINIC ALDEHYDE DOUBLE BOND REDUCTASE AND USES THEREOF” (National Research Council of Canada, priority 2007, published 2010)
Entries after “also recorded” stand apart in the source; their conditions may differ.

Experiments:
[1] = molecular target: T1, recombinant AaDBR2 (artemisinic aldehyde double bond reductase) (Artemisia annua, UniProt C5H429, A226G/L231G/N16K); assay: In vitro enzyme assays of recombinant AaDBR2 with potential substrates, GC/MS analysis; type: biochemical; details: for activity of AaDBR2 on the substance as substrate: tested as potential substrate, with NADPH, GC/MS
T1 construct: This ORF encodes a 415-amino acid protein with a predicted molecular mass of 45.6 kDa; made in house; host or cells: E. coli Rosetta 2(DE3)
Protocol: The purified recombinant His-tagged AaDBR2 protein was assayed with artemisinic aldehyde, followed by gas chromatography/mass spectrometry analysis. Enzyme reactions were initiated by adding the 0.4 mM artemisinic aldehyde to 300 μL reaction mixture containing 50 mM Tris-HCl (pH 8.0), 1 mM NADPH, 2 mM DTT and 2.0 μg of AaDBR2. Negative controls were carried out with boiled proteins, without NADPH. Reactions were allowed to proceed for 30 minutes at 30° C. with shaking, stopped by adding 15 μL acetic acid and extracted with 100 μL ethyl acetate. The ethyl acetate extracts were pooled and partially evaporated prior to GC-MS analysis. The reaction products were confirmed by comparing GC retention time and MS data with those of synthetic (11R)-dihydroartemisinic aldehyde. For quantification, octadecane was used as an internal standard.
(§1) For comparison of the catalytic properties of AaDBR2 against other substrates, reaction mixtures were pre-warmed to 30° C., and reactions were initiated by addition of AaDBR2. The pH optimum of the purified AaDBR2 was determined to be 7.5 in assay that included one of three 50 mM buffers (MES, HEPES, and Tris-HCl) adjusted to between pH 5.5 and 9.0 in 0.5-unit intervals and 0.5 mM artemisinic aldehyde and 0.48 μg of purified recombinant AaDBR2. Apparent kinetic parameters were determined under conditions that limited conversion to less than 10% as follows. Concentrations of artemisinic aldehyde (6-250 μM, 0.24 μg of AaDBR2, 2 min), 2-cyclohexen-1-one (80-10,000 μM, 0.48 μg of AaDBR2, 10 min), and (+)-carvone (20-5000 μM, 0.48 μg AaDBR2, 10 min) were varied in the presence of 1 mM NADPH. To assess cofactor specificity, concentrations of NADPH (10-640 μM, 0.48 μg of AaDBR2, 2 min) and NADH (0.2-13 mM, 1.9 μg of AaDBR2, 2 min) were varied in the presence of 0.5 mM artemisinic aldehyde. The ethyl acetate extracts from triplicate reaction mixtures were directly analyzed by GC/MS. Octadecane was used as an internal standard to quantify the products formed from the reactions using response factors determined using standards for each enzyme product. Km and kcat values were determined by nonlinear regression analysis using GraphPad™ software (GraphPad™ Software Inc., San Diego, Calif.).

[2] = molecular target: T1, recombinant AaDBR2 (artemisinic aldehyde double bond reductase); assay: Apparent kinetic parameters of purified recombinant AaDBR2; type: biochemical
Protocol: as §1

Plasmodium falciparum = details: more active than artesunate; cited from earlier work
[3] = substrate varied in the presence of 1 mM NADPH, 30° C.
[4] = cofactor varied in the presence of 0.5 mM artemisinic aldehyde

T1 sequence (C5H429 other isoform, or with tags, fused parts or gaps N16K/A226G/L231G): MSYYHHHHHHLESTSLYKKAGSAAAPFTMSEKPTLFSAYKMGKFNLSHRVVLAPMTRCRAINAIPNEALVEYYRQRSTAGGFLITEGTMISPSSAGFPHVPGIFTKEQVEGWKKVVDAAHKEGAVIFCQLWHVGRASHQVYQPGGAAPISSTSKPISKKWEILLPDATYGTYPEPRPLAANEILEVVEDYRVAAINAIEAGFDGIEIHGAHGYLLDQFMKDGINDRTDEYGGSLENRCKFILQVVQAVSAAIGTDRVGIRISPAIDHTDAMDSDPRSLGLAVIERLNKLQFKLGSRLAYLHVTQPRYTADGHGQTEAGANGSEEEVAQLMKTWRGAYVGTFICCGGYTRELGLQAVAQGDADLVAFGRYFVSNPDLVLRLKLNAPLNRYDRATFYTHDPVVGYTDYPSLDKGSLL

Compound | activity of AaDBR2 on the substance as substrate [1] | other results
O=C1C=CCCC1 [2-cyclohexen-1-one] | has activity | –
CCCCCC/C=C/C=O [2E-nonenal] | low activity; also recorded: No activity was detected | rate relative to the rate for artemisinic aldehyde ([1]; AaDBR2 substrate, FIG. 8): about 12%
C=C(C)[C@H]1CC=C(C)C(=O)C1 [(+)-carvone, (+)-Carvone] | has activity | Km [2, 3]: 650 µM; kcat [2, 3]: 0.86 s⁻¹
CC(C)=C1CC[C@@H](C)CC1=O [(+)-pulegone] | No activity was detected | –
CC1=CC[C@@H]2C[C@H]1C2(C)C [(+)-α-pinene] | No activity was detected | –
C[C@H]1[C@H](N2CCS(=O)(=O)CC2)O[C@@H]2O[C@@]3(C)CC[C@H]4[C@H](C)CC[C@@H]1[C@@]24OO3 [Artemisone] | – | activity relative to artesunate (Plasmodium falciparum): 10-30 fold
NC(=O)C1=CN([C@@H]2O[C@H](COP(=O)(O)OP(=O)(O)OC[C@H]3O[C@@H](n4cnc5c(N)ncnc54)[C@H](O)[C@@H]3O)[C@@H](O)[C@H]2O)C=CC1 [NADH] | – | enzyme activity in the presence of the cofactor ([1]; preliminary experiments): active; Km [2, 4]: 770 µM; kcat [2, 4]: 1.3 s⁻¹
NC(=O)C1=CN([C@@H]2O[C@H](COP(=O)(O)OP(=O)(O)OC[C@H]3O[C@@H](n4cnc5c(N)ncnc54)[C@H](OP(=O)(O)O)[C@@H]3O)[C@@H](O)[C@H]2O)C=CC1 [NADPH] | – | Km [2, 4]: 95 µM; kcat [2, 4]: 2.5 s⁻¹
C=C1C(=O)O[C@@]23[C@H]1CC[C@@H](C)[C@@H]2CC[C@@]1(C)O[C@@H]31 [arteannuin B, Arteannuin B] | No activity was detected | –
C=C(C(=O)O)[C@@H]1CC[C@@H](C)[C@@H]2CCC(C)=C[C@@H]21 [artemisinic acid] | No activity was detected | –
C=C(CO)[C@@H]1CC[C@@H](C)[C@@H]2CCC(C)=C[C@@H]21 [artemisinic alcohol, Artemisinic alcohol] | No activity was detected | –
C=C(C=O)[C@@H]1CC[C@@H](C)[C@@H]2CCC(C)=C[C@@H]21 [artemisinic aldehyde] | has activity | Km lower relative to 2-cyclohexen-1-one and (+)-carvone ([2]; Table 2 comparison): more than 30 fold; Km [2, 3]: 19 µM; kcat [2, 3]: 2.6 s⁻¹
C=C1C(=O)O[C@@H]2O[C@@]3(C)CC[C@H]4[C@H](C)CC[C@@H]1[C@@]24OO3 [artemisitene] | No activity was detected | –
COc1cc(/C=C/C=O)ccc1O [coniferyl aldehyde] | No activity was detected | –
C=C1C(=O)CC2(C(C)C)CC12 (stereo not drawn) [sabinone, Sabinone] | No activity was detected | –
